Source: patent US8575156B2, “Cyclic inhibitors of 11β-hydroxysteroid dehydrogenase 1” (Vitae Pharmaceuticals, Inc., priority 2007, dated 2013)
Read-outs that look alike come from different tables or passages of the source.

Target: 11β-HSD1 (Homo sapiens, UniProt P28845)
Assay: biochemical
Conditions: for IC50: IC50 Range
[1] = Biological Test Example 1, microsomes from CHO cells overexpressing human 11β-HSD1
[2] = read-out: Average % inhibition at 100 nM, Biological Test Example 1, 100 nM
[3] = read-out: Average % inhibition at 100 nM

11β-HSD1, sequence (P28845 whole entry): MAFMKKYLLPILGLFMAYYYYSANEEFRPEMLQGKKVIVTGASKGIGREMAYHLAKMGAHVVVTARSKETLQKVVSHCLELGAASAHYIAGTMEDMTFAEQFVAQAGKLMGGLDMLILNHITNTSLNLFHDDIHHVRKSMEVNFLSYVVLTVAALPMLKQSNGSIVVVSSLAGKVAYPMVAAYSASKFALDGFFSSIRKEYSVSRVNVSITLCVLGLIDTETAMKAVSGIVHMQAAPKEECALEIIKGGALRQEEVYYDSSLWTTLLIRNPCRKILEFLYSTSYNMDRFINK

SMILES | IC50 [1] [nM] | inhibition at 0.1 µM [2] [%] | inhibition at 0.1 µM [3] [%] | IC50 [nM]
C[C@@H](c1ccc(CC(C)(C)O)cc1)N1CC[C@](CCCO)(c2ccccc2)OC1=O [EXAMPLE 312, (R)-3-((S)-1-(4-(2-hydroxy-2-methylpropyl)phenyl)ethyl)-6-(3-hydroxypropyl)-6-phenyl-1,3-oxazinan-2-one] | < 100 | – | 85.7 | –
CC(C)(C)OC(=O)N1CCC[C@H](N2CC[C@](CCC(N)=O)(c3ccc(F)cc3)OC2=O)C1 [EXAMPLE 339, (S)-tert-butyl 3-((R)-6-(3-amino-3-oxopropyl)-6-(4-fluorophenyl)-2-oxo-1,3-oxazinan-3-yl)piperidine-1-carboxylate] | < 100 | 65.9 | – | –
O=C(OCc1ccccc1)N1CCC[C@H](N2CC[C@](CCCO)(c3ccc(F)cc3)OC2=O)C1 [EXAMPLE 340, (S)-benzyl 3-((R)-6-(4-fluorophenyl)-6-(3-hydroxypropyl)-2-oxo-1,3-oxazinan-3-yl)piperidine-1-carboxylate] | < 100 | – | 75.9 | –
O=C1O[C@@](CCCO)(c2ccc(F)cc2)CCN1[C@H]1CCCN(Cc2ccccc2)C1 [EXAMPLE 341, (R)-3-((S)-1-benzylpiperidin-3-yl)-6-(4-fluorophenyl)-6-(3-hydroxypropyl)-1,3-oxazinan-2-one] | – | – | 82 | < 100
O=C1OC(CCCO)(c2ccc(F)cc2)CCN1Cc1ccc(Cl)cc1Cl (centres unmarked) [EXAMPLE 343, 3-(2,4-dichlorobenzyl)-6-(4-fluorophenyl)-6-(3-hydroxypropyl)-1,3-oxazinan-2-one] | < 100 | – | 82.3 | –
C=CCC1(c2ccc(F)cc2)CCN(Cc2cc(Cl)ccc2Cl)C(=O)O1 (centres unmarked) [EXAMPLE 344, 6-allyl-3-(2,5-dichlorobenzyl)-6-(4-fluorophenyl)-1,3-oxazinan-2-one] | < 100 | 65.7 | – | –
O=C1OC(CCCO)(c2ccc(F)cc2)CCN1Cc1cc(Cl)ccc1Cl (centres unmarked) [EXAMPLE 345, 3-(2,5-dichlorobenzyl)-6-(4-fluorophenyl)-6-(3-hydroxypropyl)-1,3-oxazinan-2-one] | < 100 | 74.7 | – | –
C=CCC1(c2ccc(F)cc2)CCN(Cc2c(Cl)cccc2Cl)C(=O)O1 (centres unmarked) [EXAMPLE 346, 6-allyl-3-(2,6-dichlorobenzyl)-6-(4-fluorophenyl)-1,3-oxazinan-2-one] | < 100 | 94 | – | –
O=C1OC(CCCO)(c2ccc(F)cc2)CCN1Cc1c(Cl)cccc1Cl (centres unmarked) [EXAMPLE 347, 3-(2,6-dichlorobenzyl)-6-(4-fluorophenyl)-6-(3-hydroxypropyl)-1,3-oxazinan-2-one] | < 100 | 96 | – | –
O=C1OC(CCCO)(c2ccc(F)cc2)CCN1Cc1c(F)cccc1F (centres unmarked) [EXAMPLE 348, 3-(2,6-difluorobenzyl)-6-(4-fluorophenyl)-6-(3-hydroxypropyl)-1,3-oxazinan-2-one] | < 100 | 48.9 | – | –
O=C1OC(CCCO)(c2ccc(F)cc2)CCN1Cc1c(F)cccc1Cl (centres unmarked) [EXAMPLE 349, 3-(2-chloro-6-fluorobenzyl)-6-(4-fluorophenyl)-6-(3-hydroxypropyl)-1,3-oxazinan-2-one] | < 100 | 89.8 | – | –
C=CCC1(c2ccc(F)cc2)CCN(Cc2ccccc2Br)C(=O)O1 (centres unmarked) [EXAMPLE 350, 6-allyl-3-(2-bromobenzyl)-6-(4-fluorophenyl)-1,3-oxazinan-2-one] | < 100 | 91.8 | – | –
O=C1OC(CCCO)(c2ccc(F)cc2)CCN1Cc1ccccc1Br (centres unmarked) [EXAMPLE 351, 3-(2-bromobenzyl)-6-(4-fluorophenyl)-6-(3-hydroxypropyl)-1,3-oxazinan-2-one] | < 100 | 83.1 | – | –
COC(=O)c1ccccc1CN1CC[C@](CCCO)(c2ccc(F)cc2)OC1=O [EXAMPLE 352, (R)-methyl 2-((6-(4-fluorophenyl)-6-(3-hydroxypropyl)-2-oxo-1,3-oxazinan-3-yl)methyl)benzoate] | < 100 | 60.8 | – | –

More lines, main results first:

IC50 [1] [nM] | inhibition at 0.1 µM [2] [%] | SMILES | inhibition at 0.1 µM [3] [%] | IC50 [nM]
< 100 | 96.7 | Cc1cc(-c2ccc([C@H](C)N3CC[C@](CCCO)(c4ccc(F)cc4)OC3=O)cc2)ccn1 [EXAMPLE 311, (R)-6-(4-fluorophenyl)-6-(3-hydroxypropyl)-3-((S)-1-(4-(2-methylpyridin-4-yl)phenyl)ethyl)-1,3-oxazinan-2-one] | – | –
< 100 | 96.5 | COc1ccc([C@H](C)N2CC[C@](CCCNS(C)(=O)=O)(c3ccc(F)cc3)OC2=O)cc1 [EXAMPLE 314, N-(3-((R)-6-(4-fluorophenyl)-3-((S)-1-(4-methoxyphenyl)ethyl)-2-oxo-1,3-oxazinan-6-yl)propyl)methanesulfonamide] | – | –
< 100 | 93.2 | COc1ccc([C@H](C)N2CC[C@](CCC(N)=O)(c3ccccc3)OC2=O)cc1 [EXAMPLE 315, 3-((R)-3-((S)-1-(4-methoxyphenyl)ethyl)-2-oxo-6-phenyl-1,3-oxazinan-6-yl)propanamide] | – | –
< 100 | 87.5 | C[C@@H](C1CCCCC1)N1CC[C@](CCC(N)=O)(c2ccc(F)cc2)OC1=O [EXAMPLE 317, 3-((R)-3-((S)-1-cyclohexylethyl)-6-(4-fluorophenyl)-2-oxo-1,3-oxazinan-6-yl)propanamide] | – | –
< 100 | 83.8 | C[C@@H](C1CCCCC1)N1CC[C@](CCNS(C)(=O)=O)(c2ccc(F)cc2)OC1=O [EXAMPLE 318, N-(2-((S)-3-((S)-1-cyclohexylethyl)-6-(4-fluorophenyl)-2-oxo-1,3-oxazinan-6-yl)ethyl)methanesulfonamide] | – | –
< 100 | 93.4 | C[C@@H](C1CCCCC1)N1CC[C@](CCCNS(C)(=O)=O)(c2ccc(F)cc2)OC1=O [EXAMPLE 319, N-(3-((R)-3-((S)-1-cyclohexylethyl)-6-(4-fluorophenyl)-2-oxo-1,3-oxazinan-6-yl)propyl)methanesulfonamide] | – | –
< 100 | 96.1 | CC(=O)C[C@]1(c2ccc(F)cc2)CCN([C@@H](C)c2ccc(OC(F)F)cc2)C(=O)O1 [EXAMPLE 321, (S)-3-((S)-1-(4-(difluoromethoxy)phenyl)ethyl)-6-(4-fluorophenyl)-6-(2-oxopropyl)-1,3-oxazinan-2-one] | – | –
< 100 | 97.7 | CC[C@@H](c1ccc(OC(F)F)cc1)N1CC[C@](CCC(N)=O)(c2ccc(F)cc2)OC1=O [EXAMPLE 326, 3-((R)-3-((S)-1-(4-(difluoromethoxy)phenyl)propyl)-6-(4-fluorophenyl)-2-oxo-1,3-oxazinan-6-yl)propanamide] | – | –
< 100 | 97.2 | C[C@@H](c1ccc(OC(F)F)cc1)N1CC[C@](CCO)(c2ccccc2)OC1=O [EXAMPLE 327, (S)-3-((S)-1-(4-(difluoromethoxy)phenyl)ethyl)-6-(2-hydroxyethyl)-6-phenyl-1,3-oxazinan-2-one] | – | –
< 100 | 99.8 | C[C@@H](c1ccc(OC(F)F)cc1)N1CC[C@](CCCO)(c2ccccc2)OC1=O [EXAMPLE 329, (R)-3-((S)-1-(4-(difluoromethoxy)phenyl)ethyl)-6-(3-hydroxypropyl)-6-phenyl-1,3-oxazinan-2-one] | – | –
< 100 | 97.1 | C[C@@H](c1ccc(OC(F)F)cc1)N1CC[C@](CCCNS(C)(=O)=O)(c2ccccc2)OC1=O [EXAMPLE 331, N-(3-((R)-3-((S)-1-(4-(difluoromethoxy)phenyl)ethyl)-2-oxo-6-phenyl-1,3-oxazinan-6-yl)propyl)methanesulfonamide] | – | –
